The text below walks through data of the supplement of paper PMC10307832.

Common to all, as to experiment: relative viability (nuclei count vs DMSO), 5 days (fraction); higher = more cells survive
Compound in the test “Apatinib + Pemetrexed”: N#CC1(c2ccc(NC(=O)c3cccnc3NCc3ccncc3)cc2)CCCC1 [Apatinib] + Nc1nc2[nH]cc(CCc3ccc(C(=O)N[C@@H](CCC(=O)O)C(=O)O)cc3)c2c(=O)[nH]1 [Pemetrexed] (partner 0.2 µM)
The essentials:
(§1)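 Dosing by pin tool came one day after lung cancer cell lines were seeded in 1536-well plates, using either one drug or a fixed anchor-drug dose plus five library-drug doses (not always all listed) in √10 steps. After 5 days, nuclei were counted on 4× images. Relative viability is treated-well nuclei count divided by vehicle-well nuclei count, and values are medians of duplicate plates.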

Compound in the test “Apatinib + Tozasertib”: N#CC1(c2ccc(NC(=O)c3cccnc3NCc3ccncc3)cc2)CCCC1 [Apatinib] + Cc1cc(Nc2cc(N3CCN(C)CC3)nc(Sc3ccc(NC(=O)C4CC4)cc3)n2)n[nH]1 [Tozasertib] (partner 0.1 µM)
The essentials:
as §1

Compound in the test “Metformin + Dasatinib”: CN(C)C(=N)NC(=N)N [Metformin] + Cc1nc(Nc2ncc(C(=O)Nc3c(C)cccc3Cl)s2)cc(N2CCN(CCO)CC2)n1 [Dasatinib] (partner 0.075 µM)
The procedure, abridged:
as §1

Compound in the test “Apatinib + Bortezomib”: N#CC1(c2ccc(NC(=O)c3cccnc3NCc3ccncc3)cc2)CCCC1 [Apatinib] + CC(C)C[C@H](NC(=O)[C@H](Cc1ccccc1)NC(=O)c1cnccn1)B(O)O [Bortezomib] (partner 0.002 µM)
The procedure, abridged:
as §1

On to BEN, for which the relative viability with Apatinib + Pemetrexed (first compound 0.08 µM) is 0.64; in the test with Apatinib + Pemetrexed (first compound 0.253 µM) it was 0.563; with Apatinib + Pemetrexed (first compound 0.8 µM), 0.71; with Apatinib + Pemetrexed (first compound 2.53 µM), 0.696; with Apatinib + Pemetrexed (first compound 8 µM) it was 0.534; in the test with Apatinib + Tozasertib (first compound 0.08 µM), 0.551. For the same cell line, the relative viability was determined as 0.601 with Apatinib + Tozasertib (first compound 0.253 µM); 0.492 in the test with Apatinib + Tozasertib (first compound 0.8 µM); 0.452 in the test with Apatinib + Tozasertib (first compound 2.53 µM); 0.42 with Apatinib + Tozasertib (first compound 8 µM); 0.421 with Metformin + Dasatinib (first compound 10 µM); 0.409 with Metformin + Dasatinib (first compound 31.62 µM). Besides, the relative viability with Metformin + Dasatinib (first compound 100 µM) was 0.34; with Metformin + Dasatinib (first compound 316.23 µM), 0.281; in the test with Metformin + Dasatinib (first compound 1000 µM), 0.414; in the test with Apatinib + Bortezomib (first compound 0.08 µM), 0.688; in the test with Apatinib + Bortezomib (first compound 0.253 µM), 0.868; with Apatinib + Bortezomib (first compound 0.8 µM) it was 0.876. For the same cell line, the relative viability in the test with Apatinib + Bortezomib (first compound 2.53 µM) is 0.458; in the test with Apatinib + Bortezomib (first compound 8 µM) it was 0.871.

Take ChaGo-K-1: the relative viability in the test with Apatinib + Pemetrexed (first compound 0.08 µM) was 0.27; in the test with Apatinib + Pemetrexed (first compound 0.253 µM) it was 0.249; with Apatinib + Pemetrexed (first compound 0.8 µM) it was 0.263; with Apatinib + Pemetrexed (first compound 2.53 µM), 0.24; with Apatinib + Pemetrexed (first compound 8 µM), 0.245; in the test with Apatinib + Tozasertib (first compound 0.08 µM) it was 0.194. Besides, the relative viability amounted to 0.227 with Apatinib + Tozasertib (first compound 0.253 µM); 0.193 with Apatinib + Tozasertib (first compound 0.8 µM); 0.208 in the test with Apatinib + Tozasertib (first compound 2.53 µM); 0.178 with Apatinib + Tozasertib (first compound 8 µM); 0.742 with Metformin + Dasatinib (first compound 10 µM); 0.712 with Metformin + Dasatinib (first compound 31.62 µM). For the same cell line, the relative viability with Metformin + Dasatinib (first compound 100 µM) stood at 0.637; with Metformin + Dasatinib (first compound 316.23 µM) it was 0.501; in the test with Metformin + Dasatinib (first compound 1000 µM) it was 0.722; with Apatinib + Bortezomib (first compound 0.253 µM), 1.19; with Apatinib + Bortezomib (first compound 0.8 µM), 0.847; with Apatinib + Bortezomib (first compound 2.53 µM) it was 0.857. In addition, the relative viability with Apatinib + Bortezomib (first compound 8 µM) was determined as 1.03.

For the cell line NCI-H1355, the relative viability in the test with Apatinib + Pemetrexed (first compound 0.08 µM) was found to be 1.09; with Apatinib + Pemetrexed (first compound 0.253 µM) it was 1.01; with Apatinib + Pemetrexed (first compound 0.8 µM), 1; with Apatinib + Pemetrexed (first compound 2.53 µM), 0.898; with Apatinib + Pemetrexed (first compound 8 µM), 0.918; with Apatinib + Tozasertib (first compound 0.08 µM), 0.576. Further, the relative viability in the test with Apatinib + Tozasertib (first compound 0.253 µM) stood at 0.611; in the test with Apatinib + Tozasertib (first compound 0.8 µM) it was 0.474; in the test with Apatinib + Tozasertib (first compound 2.53 µM), 0.33; in the test with Apatinib + Tozasertib (first compound 8 µM), 0.217; with Metformin + Dasatinib (first compound 10 µM), 0.718; with Metformin + Dasatinib (first compound 31.62 µM), 0.638. In addition, the relative viability in the test with Metformin + Dasatinib (first compound 100 µM) is 0.681; with Metformin + Dasatinib (first compound 316.23 µM) it was 0.638; with Metformin + Dasatinib (first compound 1000 µM) it was 0.778; in the test with Apatinib + Bortezomib (first compound 0.08 µM) it was 1.2; with Apatinib + Bortezomib (first compound 0.253 µM) it was 1.16; with Apatinib + Bortezomib (first compound 0.8 µM) it was 1.16. Besides, the relative viability stood at 1.14 in the test with Apatinib + Bortezomib (first compound 2.53 µM) and 1.08 with Apatinib + Bortezomib (first compound 8 µM).

Take NCI-H1975: the relative viability with Apatinib + Pemetrexed (first compound 0.08 µM) was determined as 0.296; with Apatinib + Pemetrexed (first compound 0.253 µM), 0.299; in the test with Apatinib + Pemetrexed (first compound 0.8 µM), 0.271; in the test with Apatinib + Pemetrexed (first compound 2.53 µM) it was 0.282; with Apatinib + Pemetrexed (first compound 8 µM), 0.203; in the test with Apatinib + Tozasertib (first compound 0.08 µM), 0.864. Further, the relative viability turned out to be 0.691 with Apatinib + Tozasertib (first compound 0.253 µM); 0.253 with Apatinib + Tozasertib (first compound 0.8 µM); 0.157 in the test with Apatinib + Tozasertib (first compound 2.53 µM); 0.157 with Apatinib + Tozasertib (first compound 8 µM); 0.558 with Metformin + Dasatinib (first compound 10 µM); 0.417 with Metformin + Dasatinib (first compound 31.62 µM). In addition, the relative viability in the test with Metformin + Dasatinib (first compound 100 µM) was determined as 0.553; in the test with Metformin + Dasatinib (first compound 316.23 µM) it was 0.418; with Metformin + Dasatinib (first compound 1000 µM), 0.402; with Apatinib + Bortezomib (first compound 0.08 µM), 0.466; with Apatinib + Bortezomib (first compound 0.253 µM), 0.417; with Apatinib + Bortezomib (first compound 0.8 µM) it was 0.314. In addition, the relative viability in the test with Apatinib + Bortezomib (first compound 2.53 µM) stood at 0.323; with Apatinib + Bortezomib (first compound 8 µM), 0.388.

Consider NCI-H2087, for which the relative viability stood at 0.657 with Apatinib + Pemetrexed (first compound 0.08 µM); 0.682 with Apatinib + Pemetrexed (first compound 0.253 µM); 0.65 with Apatinib + Pemetrexed (first compound 0.8 µM); 0.619 with Apatinib + Pemetrexed (first compound 2.53 µM); 0.758 with Apatinib + Pemetrexed (first compound 8 µM); 0.241 in the test with Apatinib + Tozasertib (first compound 0.08 µM). The relative viability with Apatinib + Tozasertib (first compound 0.253 µM) came out at 0.223; in the test with Apatinib + Tozasertib (first compound 0.8 µM) it was 0.215; with Apatinib + Tozasertib (first compound 2.53 µM), 0.179; with Apatinib + Tozasertib (first compound 8 µM) it was 0.143; in the test with Metformin + Dasatinib (first compound 31.62 µM), 0.933; with Metformin + Dasatinib (first compound 100 µM), 0.891. Moreover, the relative viability came out at 0.676 in the test with Metformin + Dasatinib (first compound 316.23 µM); 0.693 with Metformin + Dasatinib (first compound 1000 µM); 0.866 with Apatinib + Bortezomib (first compound 0.08 µM); 0.82 with Apatinib + Bortezomib (first compound 0.253 µM); 0.779 with Apatinib + Bortezomib (first compound 0.8 µM); 0.737 with Apatinib + Bortezomib (first compound 2.53 µM). Also, the relative viability with Apatinib + Bortezomib (first compound 8 µM) came to 0.671.
